# In ChEMBL document CHEMBL3507680, “University of Dundee, Gates Library screen for HepG2 cell viability”:
# Assay: Human HepG2 cell viability assay in 384 well format
# Assay type: toxicity, cell-based
# Design: dose 125 nL, time 70.5 hour; concentration not given beside the values
# Settings: HepG2 cells, read-out: Inhibition
row,SMILES,cytotoxicity at 70.5 h [%]
1,COc1cccc(CNc2ccc(F)c(Cl)c2)c1O,-4.8
2,COc1ncccc1C(=O)N1CC[C@H]2C[C@H](c3ccncn3)O[C@@H]2C1,-14.1
3,O=C(c1ccccc1)N1CC[C@H]2C[C@H](c3nccs3)O[C@@H]2C1,-11.2
4,CCN1C[C@H]2CCN(C(=O)NC)CC[C@H]2S1(=O)=O,49
5,COc1ncccc1C(=O)N1CC[C@H]2C[C@H](c3noc(C)n3)O[C@@H]2C1,51.3
6,Cn1cc(CN2CC[C@H]3OCC[C@@H](C(=O)Nc4cnccn4)[C@@H]3C2)cn1,50.6
7,O=C1CC[C@H]2[C@H](CCN2C(=O)N2CCCC2)N1Cc1ccncc1,50.7
8,CNC(=O)c1cc2c(nc1NCC1CC1)CCN(c1ncccn1)CC2,-20.8
9,CC(C)NC(=O)N1CCN(C(=O)NC(C)C)CC2(CNC(=O)C2)C1,2.71
10,CCNc1ncc2c(n1)CN(c1cccc(OC)c1)C2=O,-7.43
11,Cc1nn(C)c2cnn(Cc3ccc(C(=O)N4CCCCC4)o3)c12,-5.62
12,Cc1nn(C)c2cnn(Cc3ccc(C(=O)NCC4CCCO4)o3)c12 (configuration not stated),-5.42
13,Cc1nn(C)c2cnn(Cc3ccc(C(=O)NC4CC4)o3)c12,-1.57
14,CCn1nc(C)c2c1cnn2CCNS(=O)(=O)Cc1ccccc1,11.3
15,O=C(CCn1ncc2c(Cl)cccc21)NCC1CC1,-5.33
16,O=C(CCn1ncc2c(Cl)cccc21)NCCCO,-5.48
17,CCn1nc(C)c2ncnc(N(C)C)c21,-3.05
18,CCN(CC)c1ncnc2c(C)nn(CC)c12,-0.883
19,Cc1ccc(NC(=O)CN2CCOCC2)c(F)c1,21.2
20,CCn1nc(C)c2nc(C)nc(NCCc3ccc(C)cc3)c21,34.1
21,CCc1nc(Nc2ccc(C(=O)NC)cc2)c2c(n1)c(C)nn2CC,-16.9
22,CCCc1nc(N(C)Cc2ccco2)c2c(n1)c(C)nn2CC,-3.19
23,CCCc1nc(NCCc2ccccc2)c2c(n1)c(C)nn2CC,-16.2

row,SMILES,cytotoxicity at 70.5 h [%]
1,Cc1nn(C)c2c(N3CCC(C)CC3)nc(C3CC3)nc12,-11.4
2,Cc1nn(C)c2c(N3CCCC3)nc(C3CC3)nc12,-11.4
3,Cc1nn(C)c2c(NCc3ccc(F)cc3)nc(C3CC3)nc12,-5.76
4,Cc1nn(C)c(C)c1CN(C)c1nc(C2CC2)nc2c(C)nn(C)c12,29.7
5,CCn1nc(C)c2nc(C(C)C)nc(N(C)Cc3ccco3)c21,-17
6,CCn1nc(C)c2nc(C(C)C)nc(NCc3ccccn3)c21,0.25
7,CCN(CC)CCNc1nc(C(C)C)nc2c(C)nn(CC)c12,-2.61
8,CC(C)n1cc(S(=O)(=O)N2CCSCC2)cn1,-4.27
9,CSc1ncnc(NCc2ccccc2F)c1C#N,23.1
10,COCCCNC(=O)c1nnsc1-c1ccccc1,-14.7
11,COCCNC(=O)c1cc(OC)c2ccoc2c1,-1.33
12,COCCCNC(=O)c1cc(OC)c2ccoc2c1,22.5
13,CCN(CC)CCNC(=O)c1cc(OC)c2ccoc2c1,-5.95
14,CSCc1cccc(S(=O)(=O)Nc2cc(C)on2)c1,3.33
15,CCN(CC)c1nc(C)cc(C(=O)Nc2ccc(Br)cc2)n1,3.54
16,Cc1nc2[nH]cnc(NCCN3CCCC3)c-2n1,-9.67
17,CCn1nccc1CNc1[nH]cnc2nc(C)nc1-2,27.9
18,Cc1nc2c(N3CCN(Cc4ccccc4)CC3)nc(N)nc2n1C,0.226
19,CCn1ccc(NC(=O)C2CCC(=O)N2Cc2ccc(C)o2)n1 (configuration not stated),-4.94
20,Cc1cc(C(=O)NCc2c(C)nn(C)c2C)nc(N2CCCC2)n1,-3.65
21,Cc1cc(C(=O)NCc2cccs2)nc(N2CCCC2)n1,-6.4
22,CCOCc1cccc(S(=O)(=O)Nc2ncc(C)s2)c1,3.25
23,Cc1nc(N2CCOCC2)ncc1-c1cc(O)nc(N2CCCCC2)n1,14.1

row,SMILES,cytotoxicity at 70.5 h [%]
1,Cc1cc(C)n(C(=O)c2cn(C)nc2S(=O)(=O)N2CCSCC2)n1,-7.57
2,CCn1cc(C(=O)n2nc(C)cc2C)c(S(=O)(=O)N2CCCCC2)n1,-3.56
3,CSc1ccc(-c2noc(CN(Cc3ccccc3)C(C)C)n2)cc1,-6.81
4,CCCN(CCC)C(=O)Cn1c(SC)nc2ccsc2c1=O,-0.333
5,CSc1nc2ccsc2c(=O)n1CC(=O)N(C)C1CCCCC1,-5.09
6,Cc1ccn(-c2ccnc(N3CCC(N4CCCCC4)CC3)n2)n1,-13.2
7,Cc1ccn(-c2ccnc(N3CCSCC3)n2)n1,-0.283
8,CCOC(=O)C1CCCN(c2nccc(-n3nc(C)cc3C)n2)C1 (configuration not stated),-9.69
9,Cc1ccn(-c2ccnc(N3CCN(c4ncccn4)CC3)n2)n1,-9.69
10,CCc1cc(=O)n(CC(=O)N2CCCC2)c(-c2ccc(F)cc2)n1,-5.4
11,Cc1cc2nc(SCC(=O)NC(C)C)n(Cc3ccco3)c(O)c-2n1,-14.4
12,CN1CCN(C(=O)c2[nH]nnc2Nc2ccccc2F)CC1,-14.3
13,CC(C)CN1CCN(C(=O)c2[nH]nnc2Nc2ccccc2F)CC1,8.05
14,CCc1cc(=O)n(CC(=O)N2CCC(C)CC2)c(-c2ccccc2)n1,-10.3
15,Cc1nc(-c2cccc(Cl)c2)n(CC(=O)NCC2CCCO2)c(=O)c1C (configuration not stated),3.53
16,CCn1cc(NC(=O)c2cc(C)nc(N3CCOCC3)n2)cn1,-10.6
17,CC(=O)NCCCn1ncc2c(C)cccc21,-10.8
18,CCS(=O)(=O)NCCCn1ncc2c(C)cccc21,-1.77
19,c1cc(-c2nn3c(CN4CCOCC4)nnc3s2)ccn1,-8.04
20,COc1ccc(C)cc1S(=O)(=O)NCCC(O)c1ccccc1 (configuration not stated),-10.5
21,Cc1cc2n(n1)[C@@H](C(F)(F)F)C[C@@H](C1CCN(C(=O)C3CC3)CC1)N2,-2.95
22,CCc1cc(C(=O)N2CCC(c3cc4ncccc4cn3)CC2)no1,18.3
23,CCCN1C[C@H](NC(=O)c2cccs2)[C@@H](c2ccc(OC)cc2)C1,0.254

row,SMILES,cytotoxicity at 70.5 h [%]
1,Cc1cc(C)n(CCCC(=O)N2CCc3ncc(Cl)cc3C2)n1,30.1
2,Cc1nc(C)n(CC(=O)N2CCc3ncc(Cl)cc3C2)n1,7.22
3,Cc1cnc(-c2nc(C3CCN(C(=O)Cc4ccsc4)CC3)no2)cn1,2.59
4,CN1CCN(C(=O)CCn2c(C(F)(F)F)cc3cccnc32)CC1,34.4
5,Cn1nccc1C(=O)N1Cc2ccccc2OC2(CCOCC2)C1,1.33
6,Cc1ccc(C(=O)N2Cc3ccccc3OC3(CCOCC3)C2)cn1,30.6
7,COc1ccc(-c2cc3nc([C@H](C)NC(=O)C4CC4)nn3cn2)cc1,-0.493
8,C[C@H](NC(=O)C1CCCC1)c1nc2cc(-c3ccc(F)cc3)ncn2n1,4.97
9,COc1ccccc1C1=NOC(CC2(C(=O)NCCO)CCOCC2)C1 (configuration not stated),0.737
10,c1ccc(-c2cc(CNCCN3CCOCC3)c3nnnn3c2)cc1,-0.928
11,COCCOCC(=O)N1C[C@@H]2CC[C@H](Oc3ccccc3Cl)[C@@H]2C1,0.895
12,O=C(O)c1ccccc1CN1CCOC(CCc2ccncn2)C1 (configuration not stated),-4.46
13,CS(=O)(=O)NC[C@]1(O)CCN(C(=O)Cc2cccs2)C[C@H]1O,12.2
14,COCCCNC(=O)c1ccccc1-n1cc(CN(C)C)cn1,-7.43
15,c1ccc(CO[C@H]2C[C@@H]3CN(Cc4cccnc4)C[C@@H]3C2)cc1,-3.52
16,Cc1cnc(C(=O)N(C)[C@@H]2CCC[C@@H](Oc3ccccc3)[C@@H]2O)cn1,16.9
17,Cc1nc2ccccn2c1CC(=O)N[C@@H]1CC[C@@H](N2CCOCC2)[C@@H]1O,-1.29
18,Cc1n[nH]c(C)c1-c1cnc(CC2CCN(C(C)C)CC2)cn1,-2.78
19,CN1CCCC[C@@H]2[C@H]1[C@@H](c1ccccc1)CCN2S(=O)(=O)N1CCCC1,-1.85
20,COCCN1CCCC(c2nc(C)n3c(C)c(C)sc23)C1 (configuration not stated),-5.38
21,Cc1cccc2nc(C(=O)N3CCCC[C@]4(C)NC(=O)CC[C@H]34)cn12,-0.96
22,O[C@H]1CN(Cc2ccc3c(c2)OCCO3)CC[C@@]12CCCO2,-2.15
23,CO[C@H]1CN(Cc2ccc(F)cc2)CC[C@@]12CCCO2,6.89

row,SMILES,cytotoxicity at 70.5 h [%]
1,O=C(CCCn1cccn1)N1C[C@@H](O)[C@H](Oc2cccc(F)c2)C1,3.04
2,CC(C)n1ccnc1CN1CCCC1c1cccc(-n2ccnc2)n1 (configuration not stated),-2.76
3,Nc1nccnc1C1CN(C(=O)c2cnc(C3CC3)nc2)CCO1 (configuration not stated),-4.03
4,CN1CCN(C(=O)C2CCCN(c3cccnn3)C2)CC1 (configuration not stated),26.4
5,COc1ccc(OC)c(C(O)CN2CCC(N3CCC(C)CC3)CC2)c1 (configuration not stated),2.26
6,CC(=O)N1CCC(C(=O)N2CCCC(Cc3cccc(C)n3)C2)CC1 (configuration not stated),-4.08
7,Cn1nccc1CCC(=O)N1CCC(c2cnccn2)CC1,-13.1
8,Cc1nc2ccc(C(=O)N3C[C@@H](O)[C@H](N4CCOCC4)C3)cc2[nH]1,12
9,CC(C)OCCCN(Cc1ccncc1)Cc1cccc(F)c1F,22.3
10,CC(C)OCCCN(Cc1ccncc1)Cc1cccc(F)c1,1.37
11,Cc1ccc(Nc2nccc(C3CCN(C(=O)CN)C3)n2)nc1 (configuration not stated),-5.12
12,CC(=O)CN1CC2(CCNCC2)COc2ccccc2S1(=O)=O,-12.2
13,CNC(=O)CN1CCOCC2(C1)CN(C(=O)CC(C)C)CCO2 (configuration not stated),-4.88
14,COC(=O)CN1CC2(CCNCC2)COc2ccccc2S1(=O)=O,6.67
15,CO[C@@H]1CCN(Cc2ccoc2)[C@@H]2CN(Cc3ccco3)C[C@@H]21,-5.98
16,c1cncc(OCc2noc3c2CN(Cc2ccco2)CC3)c1,-17.4
17,N#Cc1cccc(CN2CCn3cc(Cn4cccn4)nc3C2)c1,-16
18,CCN(CC)c1ncnc2c1CCN(C(=O)Cc1ccccn1)CC2,-1.31
19,COc1cc(CN2CCn3c(CO)nnc3C2)ccc1OC(C)C,34.7
20,Cc1ccc(CN(CCCn2ccnc2)Cc2cccs2)s1,18.6
